Test results reported in patent US12171842B2, “Method for hyperthermially treating a cancer” (Imam Abdulrahman Bin Faisal University, priority 2021, dated 2024).

Assays:
[1] = tested on: non-cancerous human foreskin fibroblasts (HFF); assay: Cell viability (MTT) and EC50, HFF; format: cell-based; details: for effect on cell viability (in words): HFF, 48 h, four doses (nanocomposites 0.025-0.5 mg/ml)
Description: (§1) Human mammary adenocarcinoma (MCF7) and the non-cancerous human foreskin fibroblasts (HFF) cell lines were used to assess the cytotoxic effect of the prepared compounds. Cells were cultured in a DMEM culture medium containing 10% HI—FBS, 1% Penicillin Streptomycin, and 1% MEM NEAA. Cells were maintained in a humidified setting at 37° C. with 5% CO2. For cell viability assay, cells were seeded in a 96-well plate with a density of 20,000 cells/well. While for microscopic images, 50,000 cells/well were plated on an eight-well chamber slide. On the following day, cells were switched to the starve culture medium that contains 0.5% HI—FBS. Cells were maintained for 24 h in the starve medium before the treatment was added.
(§2) MCF7 and HFF cells were treated with the subsequent conditions for 48 h: CuFe2O4/Mesosilicalite, Curcumin, Cisplatin, CuFe2O4/Mesosilicalite/Curcumin, CuFe2O4/Mesosilicalite/Curcumin/Cisplatin, or CuFe2O4/MCM-41/Curcumin/Cisplatin. Treatment concentrations of CuFe2O4/Mesosilicalite, CuFe2O4/Mesosilicalite/Curcumin, CuFe2O4/Mesosilicalite/Curcumin/Cisplatin, and CuFe2O4/MCM-41/Curcumin/Cisplatin nanocomposites were: 0.025, 0.05, 0.1, and 0.5 mg/ml. Based on the drug loading experiments, simple calculations were followed to reflect the actual quantity of curcumin and cisplatin that adsorbed on CuFe2O4/Mesosilicalite nanoparticles. According to the loading experiments, 1 mg of CuFe2O4 nanoparticles contains 0.25 mg and 0.045 mg of curcumin and cisplatin, respectively. Thus, if CuFe2O4/Mesosilicalite concentration was 0.5 mg/ml, there is 0.125 mg/ml of adsorbed curcumin and 0.0225 mg/ml of functionalized cisplatin. Therefore, the treatment concentrations of curcumin were: 0.00625, 0.0125, 0.025 and 0.125 mg/ml and the treatment concentrations of cisplatin were: 0.001125, 0.00225, 0.0045 and 0.0225 mg/ml.
(§3) To assess the compounds' cytotoxicity, 3-(4,5-dimethylthiazol-2-yl)-2,5-diphenyltetrazolium bromide (MTT), a cell viability assay, was used. It measures the cell viability by assessing the mitochondria's ability to convert yellow MTT solution into purple formazan insoluble crystals. […] The difference in color intensity was measured by SYNERGY-neo2 BioTek ELISA reader at 570 nm as a measuring wavelength. The technical triplicate readings of each condition were averaged, and the absorbance from MTT negative control was deducted from these readings. An initial reading was measured before MTT addition at the same wavelength. Thus, to remove undesirable interference in the measurement, the initial reading was subtracted from the final reading. Then, the treatment groups were analyzed by comparing them to the control (untreated cells). Cell viability was calculated using the following equation (1): […]

[2] = tested on: Human mammary adenocarcinoma (MCF7) cells; assay: Cell viability (MTT) and EC50, MCF7; format: cell-based; details: for effect on cell viability (in words): MCF7, 48 h, four doses (nanocomposites 0.025-0.5 mg/ml)
Description: as §1, §2, §3

[3] = Cell viability (MTT) and EC50, HFF; format: cell-based, human; details: human, HFF cells (non-cancerous human foreskin fibroblasts); HFF, third dose (0.1 mg/ml nanocomposite; 0.025 mg/ml curcumin), 48 h, versus untreated control
Description: as §1, §2, §3

SMILES | EC50 Value ([1]; HFF cell line, 48 h MTT, best-fit line) | effect on cell viability (in words) [1] | effect on cell viability (in words) [2] | EC50 Value ([2]; MCF-7 cell line, 48 h MTT, best-fit line) | viability at 48 h, 0.025 mg/ml [3] | viability at 25 µg/mL ([2]; Homo sapiens, MCF7, third dose (0.1 mg/ml nanocomposite; 0.025 mg/ml curcumin), 48 h, versus untreated control)
N.N.[Cl][Pt][Cl] [Cisplatin, cisplatin] | 3.763 µg/mL | reduction in cell viability | reduction in cell viability | 4.425 µg/mL | – | –
COc1cc(/C=C/C(=O)CC(=O)/C=C/c2ccc(O)c(OC)c2)ccc1O [Curcumin] | – | minimally reduced the cell viability | reduced cell viability only at the highest concentration | – | 84.1% | 80.7%
